Patent US6814959B1, “UV radiation reflecting or absorbing agents, protecting against harmful UV radiation and reinforcing the natural skin barrier” (PharmaSol GmbH, priority 1999, dated 2004)

Test: UV absorption of diluted aqueous dispersions in UV spectrophotometer
Assay type: physicochemical
Conditions: pure lipid solution in 96% ethanol or aqueous surfactant solution of the same concentration; 250-450 nm
Source text: The UV-blocking action of the agent was studied by measuring the UV absorption of the lipid particle dispersion in a UV spectrophotometer. The criterion was the reduced permeability of the lipid particle dispersion for UV radiation in the wavelength range up 280 nm (UV C), from 280 nm to 315 nm (=UV B) und from 315 nm to 400 nm (UV A). A further test to quantify the UV-blocking action was the determination of the reduced permeability of particle films using the standard test with Transpore™ tape (B. L. Diffey, P. M. Farr, Sunscreen protection against UVB, UVA and blue light; an in vivo and in vitro comparison, British Journal of Dermatology 124, 1991, 258-263). The particle films were produced by spreading the particle dispersion on Transpore™ tape and then air-drying. The films thus produced were then glued onto one side of a quartz cuvette and the UV permeability was determined by a photometer. The measurements took place against the corresponding references, e.g. O/W emulsion with the same lipid content as well as UV blockers incorporated into the oil phase of an emulsion.
A lipid particle dispersion consisting of 10% (m/m) cetyl palmitate, 1.2% (m/m) polyglycerol methylglucose distearate (Tego Care 450) and water was produced by high pressure homogenization. The mixture of lipid and emulsifier was melted at 75° C. and dispersed in the aqueous solution with an Ultra-Turrax T25 with dispersing tool S25, Janke und Kunkel (8000 rpm for 1 minute). The obtained pre-emulsion was then homogenized with an APV Gaulin LAB 40 homogenizer at 500 bar with 3 cycles at 75° C. Lipid particles resulted with a PCS diameter of 221 nm and a polydispersity index of 0.06. For comparison, an emulsion system was produced in which the 10% cetyl palmitate was replaced by 10% Miglyol 812. The production parameter was dispersion with the Ultra-Turrax (8000 rpm for 1 minute). The UV-blocking action was examined with a Uvikon 940 spectrophotometer, Kontron, in the wavelength range of 250-450 nm. […]

absorption over the whole measurement range | Compound
did not absorb | CCCCCCCCCCCCCCCCOC(=O)CCCCCCCCCCCCCCC [cetyl palmitate]
did not absorb | CCCCCCCCCCCCCCCCCCO [stearyl alcohol]
did not absorb | polyglycerol methylglucose distearate [Tego Care 450]
